Test results reported in US4385055A, “2-Acetyl-and 2-propionylpyridine thiosemicarbazones as antimalarials” (The United States of America as represented by the …, priority 1981, dated 1983).
Converted amounts (≈) assume the structure as drawn. Read-outs that look alike come from different tables or passages of the source.

What was measured:
Assay type in all cases: cell-based
[1] = test system: Mycobacterium intracellulare; assay: Broth dilution MIC, Mycobacterium intracellulare strains (Test 6); details: read-out: Minimum Inhibitory Concentration
Neisseria gonorrhoeae = assay: Agar dilution MIC, Neisseria gonorrhoeae isolates (Test 3); details: 24 h, read-out: Minimum Inhibitory Concentration
Experimental: Compounds were tested against six Neisseria gonorrhoeae isolates. The bacteria used were provided by the Department of Bacterial Diseases of the Walter Reed Army Institute of Research. The test procedure used was the agar dilution method in duplicate as outlined by J. C. Sherris on pages 411-412 (loc. cit.). GC Medium (Difco) with a 2% defined supplement added as described by D. S. Kellogg et al. [J. Bact. 85:1274-1279 (1963)] was used as the media. The compounds were dissolved in DMSO (1.0 mg/mL), diluted with GC broth (GC Medium without agar) to the appropriate concentration, and added to the GC Medium at 55°-56° C. The latter was then poured and allowed to solidify. A penicillin standard was also prepared with initial dilutions as described by J. C. Sherris followed by dilutions with GC broth and addition to the GC Medium at 55°-56° C. as above. The inoculum was 1:200 GC broth dilution of a suspension of colony isolates after the suspension was adjusted visually to the turbidity standard described by J. M. Matsen and A. L. Barr on page 422 in "Manual of Clinical Microbiology," 2nd ed., E. Lennette, E. H. Spaulding, and J. P. Truant, Ed. (American Society for Microbiology, Washington, D.C., 1974). The plates were inoculated with a replicator and incubated at 37° C. under 5-10% carbon dioxide.

Mycobacterium smegmatis = assay: MIC against Mycobacterium smegmatis strains (Test 4); details: Mycolicibacterium smegmatis, read-out: Minimum Inhibitory Concentration
Experimental: Compounds were tested against four strains of Mycobacterium smegmatis. The test procedure used was as mentioned by N. E. Morrison [Int. J. of Leprosy 39:34-43 (1971)]. The strain numbers refer to Mycobacterium smegmatis ATCC 607, a DDS-resistant daughter strain, a Rifampin-resistant daughter strain, and a Clofazimine-resistant daughter strain, respectively.

Neisseria meningitidis = assay: Macro broth dilution MIC, Neisseria meningitidis isolates (Test 2); details: Neisseria meningitidis, 24 h, read after 24 hours, read-out: Minimum Inhibitory Concentration
Experimental: Compounds were tested against five isolates of Neisseria meningitidis. The bacterial isolates were provided by the Department of Bacterial Diseases of the Walter Reed Army Institute of Research. The test procedure used was the macro broth dilution method in duplicate outlined by J. C. Sherris on pages 414-415 (loc. cit.). The test compounds and controls were prepared as in Test 1 above. Ampicillin and penicillin standards were initially diluted as described by J. C. Sherris on pages 411-412 (loc. cit.) followed by dilution with Mueller-Hinton broth. The tubes were incubated at 37° C. under 5-10% carbon dioxide.

Staphylococcus aureus = assay: Macro broth dilution MIC, Staphylococcus aureus isolates (Test 1); details: 24 h, read after 24 hours, read-out: Minimum Inhibitory Concentration
Experimental: Compounds were tested against five isolates of Staphylococcus aureus and five isolates of Group D Enterococcus. The bacteria used were isolated from patients at the Walter Reed Army Medical Center, Washington, D.C. The test procedure used was the macro broth dilution method in duplicate as outlined by J. C. Sherris on pages 414-415 in "Manual of Clinical Microbiology," 2nd ed., E. Lennette, E. H. Spaulding, and J. P. Truant, Ed. (American Society for Microbiology, Washington, D.C., 1974). Each compound was dissolved in DMSO (12.8 mg/mL) and then diluted with Mueller-Hinton broth to obtain the desired dilutions. Tubes containing the highest quantities of DMSO with no compound present were run as controls.

[2] = Neisseria gonorrhoeae isolate 135, read after 24 hours
[3] = Neisseria gonorrhoeae isolate 161, read after 24 hours
[4] = Neisseria gonorrhoeae isolate 278, read after 24 hours
[5] = Neisseria gonorrhoeae isolate 455, read after 24 hours
[6] = Neisseria gonorrhoeae isolate 456, read after 24 hours
[7] = Neisseria gonorrhoeae isolate 602, read after 24 hours
[8] = ATCC607, Mycobacterium smegmatis strain I (ATCC 607)
[9] = Mycobacterium smegmatis strain II (DDS-resistant daughter strain)
[10] = Mycobacterium smegmatis strain III (Rifampin-resistant daughter strain)
[11] = Mycobacterium smegmatis strain IV (Clofazimine-resistant daughter strain)

Row | Compound | MIC (Neisseria gonorrhoeae; [2]) | MIC (Neisseria gonorrhoeae; [3]) | MIC (Neisseria gonorrhoeae; [4]) | MIC (Neisseria gonorrhoeae; [5]) | MIC (Neisseria gonorrhoeae; [6]) | MIC (Neisseria gonorrhoeae; [7]) | MIC (Mycobacterium smegmatis; [8]) | MIC (Mycobacterium smegmatis; [9]) | MIC (Mycobacterium smegmatis; [10]) | MIC (Mycobacterium smegmatis; [11]) | other results
1 | CC(=NNC(=S)N1CCCCCCCCCCCC1)c1ccccn1 [Z, 1-Azacyclotridecane-1-thiocarboxylic acid 2-[1-(2-pyridyl)ethylidene]hydrazide] |  |  |  |  |  |  |  |  |  |  | MIC ([1]; Mycobacterium intracellulare strain I): 10 µg/mL (≈ 27.7 µM); MIC ([1]; Mycobacterium intracellulare strain II): 1 µg/mL (≈ 2.77 µM); MIC ([1]; Mycobacterium intracellulare strain III): 1 µg/mL (≈ 2.77 µM); MIC ([1]; Mycobacterium intracellulare strain IV): 10 µg/mL (≈ 27.7 µM); MIC ([1]; Mycobacterium intracellulare strain V): 10 µg/mL (≈ 27.7 µM); MIC ([1]; Mycobacterium intracellulare strain VI): 10 µg/mL (≈ 27.7 µM)
2 | CC(=NNC(=S)N1CCCC1)c1ccccn1 [HH, 1-Azacyclopentane-1-thiocarboxylic acid 2-[1-(2-pyridyl)ethylidene]hydrazide] | 0.008 µg/mL (≈ 0.0322 µM) | 0.004 µg/mL (≈ 0.0161 µM) | 0.008 µg/mL (≈ 0.0322 µM) | 0.008 µg/mL (≈ 0.0322 µM) | 0.008 µg/mL (≈ 0.0322 µM) | 0.008 µg/mL (≈ 0.0322 µM) | 2 µg/mL (≈ 8.05 µM) | 3 µg/mL (≈ 12.1 µM) | 2 µg/mL (≈ 8.05 µM) | 4 µg/mL (≈ 16.1 µM) | 
3 | CC(=NNC(=S)N1CCN(c2ccccn2)CC1)c1ccccn1.Cl.Cl [W, 1,4-Diaza-4-(2-pyridyl)cyclohexane-1-thiocarboxylic acid 2-[1-(2-pyridyl)-ethylidene]hydrazide dihydrochloride] |  |  |  |  |  |  | 6 µg/mL | 10 µg/mL | 5 µg/mL | 6 µg/mL | 
4 | CC(=NNC(=S)N1CCC1)c1ccccn1 [FF, Azetidine-1-thiocarboxylic acid 2-[1-(2-pyridyl)ethylidene]hydrazide] |  |  |  |  |  |  | 2 µg/mL (≈ 8.54 µM) | 2 µg/mL (≈ 8.54 µM) | < 1 µg/mL | < 1 µg/mL | 
5 | CCC(=NNC(=S)N(C)C)c1ccccn1 [JJ, 2-Propionylpyridine 4,4-dimethyl-3-thiosemicarbazone] | 0.016 µg/mL (≈ 0.0677 µM) | 0.004 µg/mL (≈ 0.0169 µM) | 0.016 µg/mL (≈ 0.0677 µM) | 0.008 µg/mL (≈ 0.0338 µM) | 0.008 µg/mL (≈ 0.0338 µM) | 0.008 µg/mL (≈ 0.0338 µM) |  |  |  |  | 
6 | CC(=NNC(=S)N1CCN(c2ccccc2)CC1)c1ccccn1 [K, 1,4-Diaza-4-phenylcyclohexane-1-thiocarboxylic acid 2-[1-(2-pyridyl)ethylidene]hydrazide] | 0.031 µg/mL (≈ 0.0913 µM) | < 0.008 µg/mL | 0.031 µg/mL (≈ 0.0913 µM) | 0.031 µg/mL (≈ 0.0913 µM) | 0.016 µg/mL (≈ 0.0471 µM) | 0.031 µg/mL (≈ 0.0913 µM) |  |  |  |  | MIC (Neisseria meningitidis; Neisseria meningitidis isolate 7957): 0.062 µg/mL (≈ 0.183 µM); MIC (Neisseria meningitidis; Neisseria meningitidis isolate 7990): 0.062 µg/mL (≈ 0.183 µM); MIC (Neisseria meningitidis; Neisseria meningitidis isolate 8005): 1 µg/mL (≈ 2.95 µM); MIC (Neisseria meningitidis; Neisseria meningitidis isolate 8006): 0.062 µg/mL (≈ 0.183 µM); MIC (Neisseria meningitidis; Neisseria meningitidis isolate 8011): 0.125 µg/mL (≈ 0.368 µM)
7 | CC(=NNC(=S)N1CCCCC1)c1ccccn1 [GG, Piperidine-1-thiocarboxylic acid 2-[1-(2-pyridyl)ethylidene]hydrazide] | 0.008 µg/mL (≈ 0.0305 µM) | 0.004 µg/mL (≈ 0.0152 µM) | 0.008 µg/mL (≈ 0.0305 µM) | 0.008 µg/mL (≈ 0.0305 µM) | 0.008 µg/mL (≈ 0.0305 µM) | 0.008 µg/mL (≈ 0.0305 µM) |  |  |  |  | 
8 | CC(=NNC(=S)NCc1ccccc1C)c1ccccn1 [N, 2-Acetylpyridine 4-(2-methylbenzyl)-3-thiosemicarbazone] |  |  |  |  |  |  |  |  |  |  | MIC (Staphylococcus aureus; Staphylococcus aureus isolate I): 2 µg/mL (≈ 6.7 µM); MIC (Staphylococcus aureus; Staphylococcus aureus isolate II): 2 µg/mL (≈ 6.7 µM); MIC (Staphylococcus aureus; Staphylococcus aureus isolate III): 2 µg/mL (≈ 6.7 µM); MIC (Staphylococcus aureus; Staphylococcus aureus isolate IV): 2 µg/mL (≈ 6.7 µM); MIC (Staphylococcus aureus; Staphylococcus aureus isolate V): 1 µg/mL (≈ 3.35 µM)
